Measurements published in US20220040136A1, “TREATMENT OF VULVOVAGINAL DISORDERS” (University of Rochester, priority 2018, published 2022).

How the values were obtained:
human vulvar fibroblasts = assay: In vitro LPV model: SPM pre-treatment of patient vestibular/vulvar fibroblasts before inflammatory stimulation, IL-6 and PGE2 by ELISA/EIA; assay type: cell-based; conditions: pre-treated 10 hours with 5 nM SPM, vestibular and external vulvar fibroblasts
Protocol: FIGS. 5A, 5B, 5C, and 5D are a set of diagrams showing that PGE2 and IL-6 production is reduced by SPMs. Patient vestibular or vulvar fibroblasts were pre-treated for 10 hours with Lipoxin A4 (LxA4), Resolvin D2 (RvD2), (7R)-Maresin 1 or epi(7S)-Maresin 1 at a 5 nM concentration, then activated with IL-1β (Panel A; 10 pg/ml) or bradykinin (Panel B; 100 nM) for 48 hr. Culture media were collected and analyzed for PGE2 (Panel A) or IL-6 (Panel B) content. Patient fibroblasts were also activated first with IL-1β for 30 min then treated with 5 nM (7R)-Maresin 1 or LXA4 for 18 hours, followed by a booster dose for 6 hr. Culture media were collected and analyzed for PGE2 (Panel C) or IL-6 (Panel D) content. Mean+/−SEM of n=3, ANOVA *p<0.05 vs. activation only (no SPM).
FIGS. 23A and 23B are diagrams showing six SPMs are effective in reducing IL-6 and PGE2 production from fibroblasts when used as a pre-treatment and post-treatment. Patient vestibular or vulvar fibroblasts were pre-treated for 18 h with Resolvin D3 (RvD3), Resolvin D4 (RvD4), Resolvin D5 (RvD5), Resolvin E1 (RvE1), Protectin D1 or Protectin DX at a 5 nM concentration, pre-treated again for 30 min prior to activation, then activated with 10 pg/ml IL-1β for 48 h with a booster SPM dose at 24 h. Culture media were collected and analyzed for IL-6 (Panel A) and PGE2 (Panel B). Mean+/−SEM of n=6 (two cases run in triplicate), ANOVA *p<0.05 vs. activation only (IL-1b).
In this example, a fibroblast-based in vitro LPV model was established. Briefly, fibroblast strains were obtained from two regions (FIG. 1) of the lower genital tract of localized provoked vulvodynia (LPV) cases and pain-free controls in the manner described in Falsetta et al. Am J Obstet Gynecol 2015, vol. 213, pp. 38 e1-12 and Foster et al., Pain 2015, vol. 156, pp. 386-96.
Over 30 paired fibroblast strains obtained from LPV-afflicted cases (fulfilling Friedrich's Criteria)^25 and age/race-matched (critical variables influencing LPV),^26, 27 pain-free controls were obtained. All subjects who contributed to the library were premenopausal, denied oral corticosteroids, non-steroidal, immunomodulatory, or anti-inflammatory medication use, and reported an absence of systemic/cutaneous inflammatory conditions at the time of sample collection. Mechanical pain thresholds were determined (via a method of limits) (0.5-5 N) using a Wagner algometer. Fibroblast identity was confirmed by microscopy and fibroblast markers (vimentin, collagen); only low passage (˜4) cells are used.
Synthesized, purified and commercially available SPMs from each known SPM class (E-series Resolvins, D-series Resolvins, Maresins, Protectins and Lipoxins) at low/nanomolar concentrations (1-100 nM) were tested. […] The inventors used one of two treatment regimens proven effective in vulvar fibroblasts and other cells: 1) overnight pre-treatment, followed by another treatment 30 min prior to stimulation with proinflammatory stimuli for 48 hr with a third dose of SPMs at 24 hr post-challenge, or 2) post-treatment with SPMs after a 30 min pre-treatment with inflammatory stimuli, followed by a booster dose 18 hr later. Both treatment regimens are of interest, as SPMs are active throughout the inflammatory process.^5-7 Even SPMs administered after LPV onset are likely to prevent the worsening or spread of LPV pain.
Next, SPMs from other classes (E series Resolvins and Protectins), as well as additional SPMs from classes containing members that are effective in reducing IL-6 and PGE2 production (e.g., Maresins) were investigated in similar screen. […] SPMs that were effective in reducing more than one proinflammatory mediator in at least 2 tests can be examined for further testing using a preclinical mouse model. […] These additional effective SPMs include Resolvin D3, Resolvin D4, Resolvin D5, Resolvin E1, Protectin D1, and Protectin DX. […]

C57BL/6 mice = assay: Mouse model of LPV (zymosan-induced vulvar allodynia), topical Maresin 1; assay type: in vivo; conditions: topical 1 μg/mouse/day, daily for 4 weeks
Description: FIG. 9 is a diagram showing that PGE2 in vaginal lavage is associated with pain threshold. After induction of allodynia for up to 6 weeks (indicated by reduced pain threshold, red line), Maresin 1 was applied to C57BL/6 mouse vulvas to reduce pain and increase pain threshold. PGE2 content in vaginal lavage samples (blue line) rapidly increases during the induction phase, indicating pain-associated inflammation waning with treatment. SEM shown, n=8.
In the mouse model, zymosan (a proinflammatory yeast cell wall preparation) was used to induce sustained vulvar allodynia, measured by pain threshold testing. […]
Using this approach, inventors confirmed that one could induce vulvar allodynia, measure pain responses via mechanical threshold determination, and assess treatment responses. However, inventors implemented several modifications to improve the robustness of the model including the following: 1) use a genetically tractable inbred strain, 2) validation of the use of an electronic von Frey (EvF) system, 3) assessment of the impact of behavioral conditioning on pain response, 4) weekly collection of vulvovaginal lavages for proinflammatory mediator quantification, and 5) testing the ability of a selected SPM (e.g., Maresin 1) to modulate pain and inflammation in our new model. […]

CC/C=C\C/C=C\C[C@H](O)\C=C/C=C/C=C/[C@H](O)C/C=C\CCC(=O)O [Maresin 1, 7R,14S-docosa-4Z,8E,10E,12Z,16Z,19Z-hexaenoic acid]
prostaglandin E2 (PGE2) production (human vulvar fibroblasts; then IL-1β 10 pg/ml 48 hr, FIG. 5A): significantly reduced | interleukin-6 (IL-6) production (human vulvar fibroblasts; then bradykinin 100 nM 48 hr, FIG. 5B): significantly reduced | PGE2 levels in vaginal lavage (C57BL/6 mice): suppressed and maintained at levels below baseline | pain threshold (electronic von Frey) (C57BL/6 mice; after allodynia induction): complete restoration to the pre-induction thresholds
